# Source: the SangsterLogP compilation
# Experiment: method code SF-HPLC, from DOI: 10.1002/(sici)1521-3838(199911)18:5<482::aid-qsar482>3.0.co;2-r
# Settings: pH 6.4
row,Structure (SMILES),logD
1,Cc1ccc(-n2c(Cn3ccc4ccccc43)n[nH]c2=S)cc1,3.2
2,Cc1ccc(-n2c(Cn3ccc4cc([N+](=O)[O-])ccc43)n[nH]c2=S)cc1,3.17
3,O=[N+]([O-])c1ccc2c(ccn2Cc2n[nH]c(=S)n2-c2ccccc2)c1,2.65
4,Cc1ccc(-n2c(Cc3c(C)[nH]c4ccccc34)n[nH]c2=S)cc1,3
5,Cc1[nH]c2ccccc2c1Cc1n[nH]c(=S)n1-c1ccccc1,2.55

# The remaining lines, values ahead:
row,logD,Structure (SMILES)
1,3.11,Cc1[nH]c2ccccc2c1Cc1nnc(Nc2ccccc2)s1
2,3.88,S=c1[nH]nc(Cn2ccc3cc(Br)ccc32)n1-c1cccc2ccccc12
3,3.99,Cc1ccc(Nc2nnc(Cn3ccc4ccccc43)s2)cc1
4,4.54,c1ccc2c(Nc3nnc(Cn4ccc5ccccc54)s3)cccc2c1
5,2.68,S=c1[nH]nc(Cn2ccc3ccccc32)n1-c1ccccc1
